Test results: PubChem BioAssay (NCI)
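Tested at 5 concentrations; 48 h exposure; 96-well plates; endpoints linearly interpolated, else capped at highest concentration. GI50 = concentration required for 50% inhibition of growth. The concentration for full growth arrest is given as TGI.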

Assays:
Experiment in all cases: NCI anticancer screen, dose series, 48 h
IGROV1 ovarian = system: IGROV1 ovarian
SF-539 CNS = system: SF-539 CNS
MALME-3M melanoma = system: MALME-3M melanoma
U251 CNS = system: U251 CNS
OVCAR-4 ovarian = system: OVCAR-4 ovarian
SW-620 colon = system: SW-620 colon
RXF 393 renal = system: RXF 393 renal
HS 578T breast = system: HS 578T breast
NCI/ADR-RES ovarian = system: NCI/ADR-RES ovarian
MCF7 breast = system: MCF7 breast

| SMILES | TGI (IGROV1 ovarian) [µM] | TGI (SF-539 CNS) [µM] | TGI (MALME-3M melanoma) [µM] | TGI (U251 CNS) [µM] | TGI (OVCAR-4 ovarian) [µM] | TGI (SW-620 colon) [µM] | GI50 (RXF 393 renal) [µM] | TGI (RXF 393 renal) [µM] | GI50 (IGROV1 ovarian) [µM] | GI50 (SF-539 CNS) [µM] | GI50 (MALME-3M melanoma) [µM] | GI50 (U251 CNS) [µM] | GI50 (OVCAR-4 ovarian) [µM] | GI50 (HS 578T breast) [µM] | TGI (HS 578T breast) [µM] | GI50 (SW-620 colon) [µM] | GI50 (NCI/ADR-RES ovarian) [µM] | TGI (NCI/ADR-RES ovarian) [µM] | GI50 (MCF7 breast) [µM] | TGI (MCF7 breast) [µM] |
| --- | --- | --- | --- | --- | --- | --- | --- | --- | --- | --- | --- | --- | --- | --- | --- | --- | --- | --- | --- | --- |
| CCOC(=O)/C(=C/c1ccc(C(=O)OC)cc1)N(CC)CC | > 100 | 60.1 | > 100 | > 100 | > 100 | > 100 |  |  |  |  |  |  |  |  |  |  |  |  |  |  |
| COC12C=C/C(=C(/C(=O)OCc3ccccn3)C(=O)CCCCCCCCC3(OC)C=C/C(=C(/C(=O)OCc4ccccn4)C(=O)CCCCCCCC1)O3)O2 | 3.73 | 3.2 | 1.38 | 1.52 | 2.28 | 2.09 | 0.192 | 0.357 | 0.421 | 0.557 | 0.325 | 0.386 | 0.332 | 0.783 | > 100 | 0.385 |  |  |  |  |
| CCOP(=O)(OCC)C1CCCOC1=O (stereo not given) | > 100 | > 100 | > 100 | > 100 | > 100 | > 100 |  | > 100 |  |  |  |  |  |  |  |  |  |  |  |  |
| C[CH2][Ge]([CH2]C)([CH2]C)[O]C(=O)C(OC(C)=O)c1ccccc1 (stereo not given) | > 100 | > 100 | > 100 | > 100 | > 100 | > 100 |  |  | > 100 | > 100 | > 100 | > 100 | > 100 |  |  | > 100 |  |  |  |  |
| CC(=O)c1c2c(cc3c1CC1(C3)Cc3cc4c(c(C(C)=O)c3C1)CCC4)CCC2 | > 100 | > 100 | > 100 | > 100 | > 100 | > 100 |  | > 100 |  |  |  |  |  |  |  |  |  |  |  |  |
| COC(=O)N/N=C(\C)c1c(O)cc(C)oc1=O | > 100 | 58 | > 100 | > 100 | > 100 | > 100 |  |  |  |  |  |  |  |  |  |  |  |  |  |  |
| COc1cc(/C=C/C(=O)/C=C/c2ccc(-n3ccnc3C)cc2)ccc1O | 5.12 | 5.53 | 30.5 | 6.4 | > 100 | 5.63 | 1.66 | 3.18 | 2.04 | 2.19 | 4.63 | 2.31 | 8.87 |  |  | 2.23 | 14.5 | > 100 |  |  |
| Cc1cccc(C)c1NC(=O)C1=NC(=S)NC(c2ccccc2)C1c1nc2ccccc2s1 (stereo not given) | > 100 | > 100 | > 100 | > 100 | > 100 | > 100 |  | > 100 |  |  |  |  |  |  |  |  |  |  |  |  |
| COC(=O)C1Cc2c(n(C)c3ccccc23)C(CCC(=O)O)N1Cc1ccccc1 (stereo not given) | > 100 | 58 | > 100 | > 100 | > 100 | > 100 |  | 89.7 |  |  |  |  |  |  |  |  |  |  |  |  |
| CN(c1ccc(C(=O)c2ccc(N(C)S(C)(=O)=O)cc2)cc1)S(C)(=O)=O |  |  | > 100 | > 100 | > 100 | > 100 |  |  |  |  |  |  |  |  |  |  |  |  |  |  |
| C[N+](C)(C)CC(=O)N/N=C(/C(=O)Nc1ccc(Br)cc1)C1C(=O)NC(=O)NC1=O | > 100 | > 100 | > 100 | > 100 | > 100 | > 100 |  | > 100 |  |  |  |  |  |  |  |  |  |  |  |  |
| CN(C)C(=N/O)/C(=N\O)N(C)C | > 100 | > 100 | > 100 | > 100 | > 100 | > 100 |  | > 100 |  |  |  |  |  |  |  |  |  |  |  |  |
| N#C/C(=C/c1ccc2c(c1)OCO2)C(=O)c1ccccc1 | > 100 | > 100 | > 100 | > 100 | > 100 | > 100 |  |  |  |  |  |  |  |  |  |  |  |  |  |  |
| CC(=O)[O-].Cn1ccnc1CNCc1nccn1C.[Cu+2].[O-][Cl+3]([O-])([O-])[O-] | > 100 | > 100 |  | > 100 | > 100 | > 100 | > 100 | > 100 | > 100 | > 100 |  | 33.7 | 3.1 |  |  | > 100 |  |  |  |  |
| COc1ccc(/C(COc2ccc3oc(-c4ccccc4)cc(=O)c3c2)=N\O)cc1 | > 50 | 2.72 |  | 12.2 | > 29.9 | > 50 | 47.4 | > 50 | < 0.005 | 1.25 |  | 0.13 | 10.4 |  |  | 0.382 | 0.11 | 5.51 | < 0.005 | 11.6 |
| c1ccc2c3c([nH]c2c1)[C@H]1C2CCCCN2CN1CC3 (stereo not given in full) | > 100 | > 100 | > 100 | > 100 | > 100 | > 100 |  | > 100 |  |  |  |  |  |  |  |  |  |  |  |  |
| COCN1COCN=C1NC#N | > 100 | > 100 | > 100 | > 100 | > 100 | 66.8 |  | > 100 |  |  |  |  |  |  |  |  |  |  |  |  |
